From article PMC10141516 (Pharmaceutics, 2023)

How the values were obtained:
[1] = Equilibrium solubility test (HPLC); settings: thermodynamic from solid
Procedure: The column used was an Agilent C18 column (5.0 μm, 4.6 × 150 mm). The mobile phase and diluted solution of the content and dissolution studies analyses were prepared with 0.5% triethylamine buffer (v/v, pH 6.8 adjusted with 85% phosphoric acid) and acetonitrile at a ratio of 7:3 (v/v). The mobile phase was filtered through a 0.45-μm polypropylene membrane filter and degassed via sonication. The wavelength, flow rate, and injection volume were set to 205 nm, 1.5 mL/min, and 20 μL, respectively. In the case of the content and dissolution studies, the mobile phase was constantly flowed for 18 min via an isocratic elution method and analyzed.
The equilibrium solubility test was used to calculate the input amount through the apparent solubility test result, and an excess of the API was placed in each beaker and stirred at 400 rpm. At 0, 12, and 24 h immediately after the overdose, 2 mL samples were taken and filtered through a 0.45-μm regenerated cellulose syringe filter. The supernatant of the filtered solution was taken and diluted with a content analysis diluted solution. […] A calibration test was performed, and the sample was diluted with a diluted solution and prepared at a concentration of 0.05–1 mg/mL.

[2] = Stability study of the APIs in pH buffers (total impurity by HPLC); format: physicochemical
Procedure: The column used was the Gemini C18 column (5.0 μm, 250 mm). Mobile phase A of the impurity study was prepared with KH2PO4 buffer (v/v, solution adjusted to pH 6.0 with 1 M KOH): acetonitrile: methanol = 85: 10: 5 (v/v/v), and mobile phase B was prepared with 90% acetonitrile. The mobile phase was filtered through a 0.4 μm polypropylene membrane filter and degassed via sonication. The diluted solution was prepared with KH2PO4 buffer (v/v, solution adjusted to pH 6.0 with 1 M KOH) and acetonitrile at a ratio of 7:3 (v/v). The wavelength, flow rate, and injection volume were set to 220 nm, 1.0 mL/min, and 20 μL, respectively. The column and sample thermostats were set to 35 °C and 5 °C, respectively. In the case of the impurity study, the analysis was performed by changing the composition of the mobile phase for 80 min using a gradient elution method for 80 min.
[…] […] We performed a calibration test, and the sample was diluted with a diluted solution and prepared at a concentration of 0.05–1 mg/mL.

[3] = Compatibility study API-excipient / API-API (total impurities by HPLC); format: physicochemical
Procedure: The column used was the Gemini C18 column (5.0 μm, 250 mm). […] The mobile phase was filtered through a 0.4 μm polypropylene membrane filter and degassed via sonication. […] The column and sample thermostats were set to 35 °C and 5 °C, respectively. […] The compatibility study was performed using appearance and impurity tests to confirm the interaction between each API and the excipient. Each API was mixed with mannitol, microcrystalline cellulose, lactose, silicified microcrystalline cellulose, calcium hydrogen phosphate anhydrous, pregelatinized starch, sodium starch glycolate, crospovidone, sodium croscarmellose, magnesium stearate, colloidal silicon dioxide, sodium stearyl fumarate, hydroxypropyl cellulose, calcium hydroxide, citric acid, and OPADRY II pink in a 1:1 (w/w) ratio and put into each clear glass vial.

[4] = oral; cited from earlier work
[5] = cited from earlier work

N[C@@H](CC(=O)N1CCn2c(nnc2C(F)(F)F)C1)Cc1cc(F)c(F)cc1F.O.O=P(O)(O)O [Sitagliptin, (R)-3-Amino-1-(3-(trifluoromethyl)-5,6-dihydro-[1,2,4]triazolo[4,3-a]pyrazin-7(8H)-yl)-4-(2,4,5-trifluorophenyl)butan-1-one phosphate monohydrate]
0.06%: Total Impurity ([2]; pH 6.0 buffer, 40 ± 2 °C/75 ± 5% RH, 7 Days) | Total Impurity ([2]; pH 6.8 buffer, 20 ± 2 °C/60 ± 5% RH, 7 Days) | Total Impurity ([2]; pH 8.0 buffer, Initial)
1.42%: Total Impurity ([2]; pH 3.0 buffer, 20 ± 2 °C/60 ± 5% RH, 7 Days)
5.64%: Total Impurity ([2]; pH 3.0 buffer, 40 ± 2 °C/75 ± 5% RH, 7 Days)
1430 µg/mL: solubility thermodynamic at 24 h ([1]; pH 8, aqueous buffer)
1160 µg/mL: solubility thermodynamic at 12 h ([1]; pH 6, aqueous buffer) | solubility thermodynamic at 24 h ([1]; pH 6, aqueous buffer)
1440 µg/mL: solubility thermodynamic at 12 h ([1]; pH 11, aqueous buffer) | solubility thermodynamic at 24 h ([1]; pH 11, aqueous buffer)
1500 µg/mL: solubility thermodynamic at 12 h ([1]; pH 9, aqueous buffer) | solubility thermodynamic at 24 h ([1]; pH 9, aqueous buffer)
1600 µg/mL: solubility thermodynamic at 24 h ([1]; pH 12, aqueous buffer)
0.59%: Total Impurity ([2]; pH 2.0 buffer, 40 ± 2 °C/75 ± 5% RH, 7 Days)
2670 µg/mL: solubility thermodynamic at 12 h ([1]; pH 6.8, aqueous buffer)
3110 µg/mL: solubility thermodynamic at 12 h ([1]; pH 2, aqueous buffer) | solubility thermodynamic at 24 h ([1]; pH 2, aqueous buffer)
0.23%: Total Impurity ([2]; pH 2.0 buffer, 20 ± 2 °C/60 ± 5% RH, 7 Days)
0.05%: Total Impurity ([2]; pH 6.0 buffer, Initial)
0.02%: Total Impurity ([2]; pH 1.2 buffer, 40 ± 2 °C/75 ± 5% RH, 3 Days) | Total Impurity ([2]; pH 1.2 buffer, Initial) | Total Impurity ([2]; pH 2.0 buffer, Initial) | Total Impurity ([2]; pH 4.0 buffer, 40 ± 2 °C/75 ± 5% RH, 7 Days) | Total Impurity ([2]; pH 4.0 buffer, Initial) | Total Impurity ([2]; pH 10.0 buffer, Initial)
0.14%: Total Impurity ([2]; pH 1.2 buffer, 40 ± 2 °C/75 ± 5% RH, 7 Days)
0.03%: Total Impurity ([2]; pH 2.0 buffer, 20 ± 2 °C/60 ± 5% RH, 3 Days) | Total Impurity ([2]; pH 5.0 buffer, 20 ± 2 °C/60 ± 5% RH, 7 Days) | Total Impurity ([2]; pH 5.0 buffer, 40 ± 2 °C/75 ± 5% RH, 7 Days) | Total Impurity ([2]; pH 5.0 buffer, Initial) | Total Impurity ([2]; pH 6.0 buffer, 20 ± 2 °C/60 ± 5% RH, 7 Days) | Total Impurity ([2]; pH 6.8 buffer, 40 ± 2 °C/75 ± 5% RH, 7 Days) | Total Impurity ([2]; pH 7.0 buffer, 20 ± 2 °C/60 ± 5% RH, 7 Days) | Total Impurity ([2]; pH 7.0 buffer, 40 ± 2 °C/75 ± 5% RH, 7 Days) | Total Impurity ([2]; pH 8.0 buffer, 20 ± 2 °C/60 ± 5% RH, 7 Days) | Total Impurity ([2]; pH 8.0 buffer, 40 ± 2 °C/75 ± 5% RH, 7 Days) | Total Impurity ([2]; pH 9.0 buffer, 40 ± 2 °C/75 ± 5% RH, 7 Days) | Total Impurity ([2]; pH 10.0 buffer, 20 ± 2 °C/60 ± 5% RH, 7 Days) | Total Impurity ([2]; pH 10.0 buffer, 40 ± 2 °C/75 ± 5% RH, 7 Days) | Total Impurity ([2]; pH 11.0 buffer, 20 ± 2 °C/60 ± 5% RH, 7 Days) | Total Impurity ([2]; pH 12.0 buffer, 20 ± 2 °C/60 ± 5% RH, 7 Days) | Total Impurity ([2]; pH 12.0 buffer, 40 ± 2 °C/75 ± 5% RH, 7 Days) | Total Impurity ([2]; pH 12.0 buffer, Initial)
Class 1: biopharmaceutics classification system (BCS) [5]
0.37%: Total Impurity ([2]; pH 3.0 buffer, 40 ± 2 °C/75 ± 5% RH, 3 Days)
1610 µg/mL: solubility thermodynamic at 12 h ([1]; pH 4, aqueous buffer) | solubility thermodynamic at 24 h ([1]; pH 4, aqueous buffer) | solubility thermodynamic at 12 h ([1]; pH 12, aqueous buffer)
0.04%: Total Impurity ([2]; pH 6.8 buffer, Initial) | Total Impurity ([2]; pH 11.0 buffer, 40 ± 2 °C/75 ± 5% RH, 7 Days) | Total Impurity ([2]; pH 11.0 buffer, Initial)
2760 µg/mL: solubility thermodynamic at 12 h ([1]; pH 7, aqueous buffer) | solubility thermodynamic at 24 h ([1]; pH 7, aqueous buffer)
970 µg/mL: solubility thermodynamic at 24 h ([1]; pH 10, aqueous buffer)
0.00%: Total Impurity ([2]; pH 4.0 buffer, 20 ± 2 °C/60 ± 5% RH, 3 Days) | Total Impurity ([2]; pH 4.0 buffer, 40 ± 2 °C/75 ± 5% RH, 3 Days) | Total Impurity ([2]; pH 5.0 buffer, 20 ± 2 °C/60 ± 5% RH, 3 Days) | Total Impurity ([2]; pH 5.0 buffer, 40 ± 2 °C/75 ± 5% RH, 3 Days) | Total Impurity ([2]; pH 6.0 buffer, 20 ± 2 °C/60 ± 5% RH, 3 Days) | Total Impurity ([2]; pH 6.8 buffer, 40 ± 2 °C/75 ± 5% RH, 3 Days) | Total Impurity ([2]; pH 7.0 buffer, 20 ± 2 °C/60 ± 5% RH, 3 Days) | Total Impurity ([2]; pH 7.0 buffer, 40 ± 2 °C/75 ± 5% RH, 3 Days) | Total Impurity ([2]; pH 7.0 buffer, Initial) | Total Impurity ([2]; pH 8.0 buffer, 40 ± 2 °C/75 ± 5% RH, 3 Days) | Total Impurity ([2]; pH 9.0 buffer, 20 ± 2 °C/60 ± 5% RH, 3 Days) | Total Impurity ([2]; pH 9.0 buffer, 20 ± 2 °C/60 ± 5% RH, 7 Days) | Total Impurity ([2]; pH 9.0 buffer, 40 ± 2 °C/75 ± 5% RH, 3 Days) | Total Impurity ([2]; pH 9.0 buffer, Initial) | Total Impurity ([2]; pH 10.0 buffer, 20 ± 2 °C/60 ± 5% RH, 3 Days) | Total Impurity ([2]; pH 10.0 buffer, 40 ± 2 °C/75 ± 5% RH, 3 Days) | Total Impurity ([2]; pH 11.0 buffer, 20 ± 2 °C/60 ± 5% RH, 3 Days) | Total Impurity ([2]; pH 11.0 buffer, 40 ± 2 °C/75 ± 5% RH, 3 Days) | Total Impurity ([2]; pH 12.0 buffer, 20 ± 2 °C/60 ± 5% RH, 3 Days) | Total Impurity ([2]; pH 12.0 buffer, 40 ± 2 °C/75 ± 5% RH, 3 Days) | Total Impurities ([3]; 20 ± 2 °C/60 ± 5% RH, 2 Weeks) | Total Impurities ([3]; 20 ± 2 °C/60 ± 5% RH, 4 Weeks) | Total Impurities ([3]; 40 ± 2 °C/75 ± 5% RH, 2 Weeks) | Total Impurities ([3]; 40 ± 2 °C/75 ± 5% RH, 4 Weeks) | Total Impurities ([3]; Initial)
1940 µg/mL: solubility thermodynamic at 12 h ([1]; pH 1.2, aqueous buffer) | solubility thermodynamic at 24 h ([1]; pH 1.2, aqueous buffer)
1520 µg/mL: solubility thermodynamic at 24 h ([1]; pH 5, aqueous buffer)
960 µg/mL: solubility thermodynamic at 12 h ([1]; pH 10, aqueous buffer)
1510 µg/mL: solubility thermodynamic at 12 h ([1]; pH 5, aqueous buffer)
0.01%: Total Impurity ([2]; pH 1.2 buffer, 20 ± 2 °C/60 ± 5% RH, 3 Days) | Total Impurity ([2]; pH 4.0 buffer, 20 ± 2 °C/60 ± 5% RH, 7 Days) | Total Impurity ([2]; pH 6.0 buffer, 40 ± 2 °C/75 ± 5% RH, 3 Days) | Total Impurity ([2]; pH 6.8 buffer, 20 ± 2 °C/60 ± 5% RH, 3 Days) | Total Impurity ([2]; pH 8.0 buffer, 20 ± 2 °C/60 ± 5% RH, 3 Days)
0.09%: Total Impurity ([2]; pH 1.2 buffer, 20 ± 2 °C/60 ± 5% RH, 7 Days)
1700 µg/mL: solubility thermodynamic at 12 h ([1]; pH 3, aqueous buffer) | solubility thermodynamic at 24 h ([1]; pH 3, aqueous buffer)
1420 µg/mL: solubility thermodynamic at 12 h ([1]; pH 8, aqueous buffer) | solubility thermodynamic at 12 h ([1]; water) | solubility thermodynamic at 24 h ([1]; water)
approximately 87%: bioavailability [4]
0.08%: Total Impurity ([2]; pH 2.0 buffer, 40 ± 2 °C/75 ± 5% RH, 3 Days) | Total Impurity ([2]; pH 3.0 buffer, 20 ± 2 °C/60 ± 5% RH, 3 Days) | Total Impurity ([2]; pH 3.0 buffer, Initial)
